{"source": "paper PMC7582316", "about": "“Structural and Computational Insights into a Blebbistatin-Bound Myosin•ADP Complex with Characteristics of an ADP-Release Conformation along the Two-Step Myosin Power Stoke” (International Journal of Molecular Sciences, 2020)", "target": "T1, Dd myosin-II motor domain (Dictyostelium discoideum, UniProt P08799)", "T1 construct": "gene mhcA; His6-tagged motor domain, amino acids 1–765 fused to a C-terminal SSB tag", "T1 sequence (P08799 1-765)": "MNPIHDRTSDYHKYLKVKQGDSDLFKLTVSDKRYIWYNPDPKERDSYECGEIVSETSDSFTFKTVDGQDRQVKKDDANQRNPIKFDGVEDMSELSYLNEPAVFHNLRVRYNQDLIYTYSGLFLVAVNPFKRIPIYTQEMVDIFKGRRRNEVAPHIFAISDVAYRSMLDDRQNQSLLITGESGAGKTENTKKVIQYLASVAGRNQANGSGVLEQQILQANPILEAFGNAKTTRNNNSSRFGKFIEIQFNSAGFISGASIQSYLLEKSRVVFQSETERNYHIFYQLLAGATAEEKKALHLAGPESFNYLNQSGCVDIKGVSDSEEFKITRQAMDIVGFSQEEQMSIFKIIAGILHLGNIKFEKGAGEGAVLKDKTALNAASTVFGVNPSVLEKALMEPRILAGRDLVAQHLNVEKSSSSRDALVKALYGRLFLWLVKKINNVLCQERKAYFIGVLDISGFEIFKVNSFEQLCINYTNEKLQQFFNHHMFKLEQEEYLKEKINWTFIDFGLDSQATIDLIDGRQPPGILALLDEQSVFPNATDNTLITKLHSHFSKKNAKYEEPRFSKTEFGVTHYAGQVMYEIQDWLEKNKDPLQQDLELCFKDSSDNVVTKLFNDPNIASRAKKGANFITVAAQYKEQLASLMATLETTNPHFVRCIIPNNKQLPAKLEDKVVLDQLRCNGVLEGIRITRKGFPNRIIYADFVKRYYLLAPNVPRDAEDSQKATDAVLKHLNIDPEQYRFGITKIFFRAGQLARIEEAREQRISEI", "assay": "microscale thermophoresis (MST); also X-ray crystal structure with blebbistatin", "format": "binding", "data": [{"smiles": "Nc1ncnc2c1ncn2[C@@H]1O[C@H](COP(=O)(O)OP(=O)(O)O)[C@@H](O)[C@H]1O", "note": "[ADP]", "values": [{"measurement": "Kd", "value": "37.5 ± 7.3", "unit": "µM"}]}]}
